Results published in article PMC6934184, “Selective DNA-PKcs inhibition extends the therapeutic index of localized radiotherapy and chemotherapy” (The Journal of Clinical Investigation, 2019).

Target: T1, HCK (Homo sapiens, UniProt P08631)
T1 construct: purchased Thermo Fisher Scientific (Life Technologies) SelectScreen
Test: SelectScreen Z'LYTE
Format: biochemical
Method in brief: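 Compound tested in SelectScreen activity assays, Z'LYTE for CSF1R, CDK1/cyclin B and MAP2K6 and Adapta for CAMK1. ATP for CAMK1 was listed as 10, and Km app was used for CSF1R. Results are expressed in percent.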

T1 sequence (P08631 whole entry): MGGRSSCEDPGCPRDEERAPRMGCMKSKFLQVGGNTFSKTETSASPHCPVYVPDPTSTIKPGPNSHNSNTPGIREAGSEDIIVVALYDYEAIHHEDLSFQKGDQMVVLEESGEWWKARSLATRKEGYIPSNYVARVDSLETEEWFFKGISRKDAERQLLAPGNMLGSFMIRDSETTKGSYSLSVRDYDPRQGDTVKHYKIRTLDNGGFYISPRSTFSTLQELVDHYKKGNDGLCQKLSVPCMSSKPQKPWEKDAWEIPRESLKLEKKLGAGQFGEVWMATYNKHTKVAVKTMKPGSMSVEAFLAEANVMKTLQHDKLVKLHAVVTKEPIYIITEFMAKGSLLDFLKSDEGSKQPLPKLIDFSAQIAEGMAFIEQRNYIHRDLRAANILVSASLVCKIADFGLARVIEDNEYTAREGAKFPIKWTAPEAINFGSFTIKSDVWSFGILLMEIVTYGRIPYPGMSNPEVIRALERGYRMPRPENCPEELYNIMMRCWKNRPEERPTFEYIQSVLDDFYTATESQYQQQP

CN(C(=O)CN1CCOCC1)c1ccc2sc3c(-c4cccc5c(=O)cc(N6CC7CCC(C6)O7)oc45)cccc3c2c1 [NU5455]
inhibition at 1 µM: 18%
